Key:
[1] = target: GDP-bound KRAS protein (aa 1-169), containing both G12D and C118A amino acid substitutions (Homo sapiens, UniProt P01116, C118A/G12D); assay: KRAS G12D Coupled Nucleotide Exchange Assay; format: biochemical; settings: 2 h compound pre-incubation; SOS-mediated nucleotide exchange, cRAF AlphaScreen readout;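 note: IC50 obtained by fitting the AlphaScreen signal with a four-parameter logistic curve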
[2] = system: Phosphorylation of ERK1/2 in A-427 cells; assay: Phospho-ERK1/2 MSD Assay; format: cell-based; settings: Homo sapiens, A-427, 2 h, 2 h compound treatment, read-out: pERK (A427 cells) IC50
How it was run: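 ERK1/2 phosphorylation measured by Meso Scale whole-cell lysate assay after A-427 cells were exposed to a titration of compound for 2 h at 37 °C.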

[3] = target: His-tagged KRAS G12D protein (Homo sapiens, UniProt P01116, G12D); assay: KRAS G12D TR-FRET Assay; format: binding; settings: biotinylated KRPep-2d substrate, 10 μM GDP;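 note: europium anti-His antibody paired with streptavidin-d2 as FRET partners, initial 30 min incubation, then peptide 1 h and detection reagents 1 h, all at room temperature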
Chain of His-tagged KRAS G12D protein (P01116 1-188 isoform P01116-2 G12D): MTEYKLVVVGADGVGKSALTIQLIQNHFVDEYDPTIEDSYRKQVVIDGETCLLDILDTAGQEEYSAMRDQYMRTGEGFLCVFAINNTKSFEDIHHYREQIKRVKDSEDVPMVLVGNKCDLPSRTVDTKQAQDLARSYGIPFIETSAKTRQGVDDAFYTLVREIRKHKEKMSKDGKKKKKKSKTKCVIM

Chain of GDP-bound KRAS protein (aa 1-169), containing both G12D and C118A amino acid substitutions (P01116 1-169 isoform P01116-2 G12D/C118A): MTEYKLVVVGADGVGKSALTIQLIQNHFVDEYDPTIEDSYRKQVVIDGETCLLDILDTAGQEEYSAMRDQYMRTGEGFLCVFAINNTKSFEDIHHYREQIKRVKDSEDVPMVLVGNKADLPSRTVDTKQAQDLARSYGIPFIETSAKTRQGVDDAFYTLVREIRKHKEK

Row | Compound | Avg 2 h Coupled Exchange IC50 [1] [nM] | IC50 [2] [nM] | IC50 [3] [nM]
1 | C[C@@]1(COc2nc(N3CCNCC3)c3cc(Cl)c(-c4cccc5sc(N)nc45)c(F)c3n2)CCCN1 [Example 73, 4-(6-chloro-8-fluoro-2-(((S)-2-methyl-pyrrolidin-2-yl)methoxy)-4-(piperazin-1-yl)quinazolin-7-yl)benzo[d] thiazol-2-amine] | 36 | > 10000 | 60
2 | Nc1nc2c(-c3ccc4c(N5[C@@H]6CC[C@H]5CNC6)nc(OC[C@@]56CCCN5C[C@H](F)C6)nc4c3)ccc(F)c2s1 [Example 135, 4-(4-((1R,5S)-3,8-diazabicyclo[3.2.1]octan-8-yl)-2-(((2R,7aS)-2-fluorotetrahydro-1H-pyrrolizin-7a(5H)-yl)methoxy)quinazolin-7-yl)-7-fluorobenzo[d]thiazol-2-amine] | 64 | > 10000 | 207
3 | CCc1cc2c(N3C[C@H]4CC[C@@H](C3)N4)nc(OC[C@@]34CCCN3C[C@H](F)C4)nc2c(F)c1-c1ccc(F)c2sc(N)nc12 [Example 153, 4-(4-((1R,5S)-3,8-diazabicyclo[3.2.1]octan-3-yl)-6-ethyl-8-fluoro-2-(((2R,7aS)-2-fluorotetrahydro-1H-pyrrolizin-7a(5H)-yl)methoxy)quinazolin-7-yl)-7-fluorobenzo[d]thiazol-2-amine] | 6 | 11 | 4
4 | CN1CC[C@@H](COc2nc(N3CCNCC3)c3cc(Cl)c(-c4cccc5sc(N)nc45)c(F)c3n2)C1 [Example 53, 4-(6-chloro-8-fluoro-2-(((R)-1-methyl-pyrrolidin-3-yl)methoxy)-4-(piperazin-1-yl)quinazolin-7-yl)benzo[d] thiazol-2-amine] | 75 | > 25000 | 414
5 | Nc1nc2c(-c3c(Cl)cc4c(N5C[C@H]6C[C@@H](C5)N6)nc(OCC56CCCN5CC(F)(F)C6)nc4c3F)ccc(F)c2s1 (stereo partly drawn) [Example 14, 4-(4-((1R,5S)-3,6-diazabicyclo[3.1.1]heptan-3-yl)-6-chloro-2-((2,2-difluorotetrahydro-1H-pyrrolizin-7a(5H)-yl)methoxy)-8-fluoroquinazolin-7-yl)-7-fluorobenzo[d] thiazol-2-amine] | 14 | 1500 | 12
6 | Nc1nc2c(-c3c(Cl)cc4c(N5CCNCC5)nc(OC[C@@]56CCCN5[C@@H](CO)CC6)nc4c3F)cccc2s1 [Example 51, ((3R,7aS)-7a-(((7-(2-aminobenzo[d]thiazol-4-yl)-6-chloro-8-fluoro-4-(piperazin-1-yl)quinazolin-2-yl)oxy)methyl)hexahydro-1H-pyrrolizin-3-yl)methanol] | 42 | 16700 | 53
7 | C=Cc1cc2c(N3[C@@H]4CC[C@H]3CNC4)nc(OC[C@@]34CCCN3C[C@H](F)C4)nc2c(F)c1-c1ccc(F)c2sc(N)nc12 [Example 151, 4-(4-((1R,5S)-3,8-diazabicyclo[3.2.1]octan-8-yl)-8-fluoro-2-(((2R,7aS)-2-fluorotetrahydro-1H-pyrrolizin-7a(5H)-yl)methoxy)-6-vinylquinazolin-7-yl)-7-fluorobenzo[d]thiazol-2-amine] | 5 | 33 | 5
8 | Nc1nc2c(-c3c(Cl)cc4c(N5CCNC6CCCC65)nc(OC[C@@]56CCCN5C[C@H](F)C6)nc4c3F)ccc(F)c2s1 (stereo partly drawn) [Example 40, 4-(6-chloro-8-fluoro-2-(((2R,7aS)-2-fluorotetrahydro-1H-pyrrolizin-7a(5H)-yl)methoxy)-4-(octahydro-1H-cyclopenta[b]pyrazin-1-yl)quinazolin-7-yl)-7-fluorobenzo[d] thiazol-2-amine] | 48 | 5610 | 51

Source: patent US20250059179A1, “Heterocyclic Compounds and Methods of Use” (AMGEN INC., priority 2021, published 2025)
